The subject of one series is SARS‐CoV‐2. The series is described as follows: microbe, parasite or virus in culture. Format: cell-based. The following applies: for EC50: Severe acute respiratory syndrome coronavirus 2, Vero C1008, 24 h, read-out: EC50 inhibition of SARS‐CoV‐2 replication.
The nature of another series: in vitro. The following applies: African green monkey.
The target in another series is SARS‐CoV‐2 PL^pro (Severe acute respiratory syndrome coronavirus 2, UniProt P0DTD1). The series is described as follows: biochemical. Format: biochemical.
Series [1] has as its target T1, SARS‐CoV PL^pro (Severe acute respiratory syndrome coronavirus, UniProt P0C6X7). The series is described as follows: biochemical. Format: biochemical.
The target of series [2] is T1, SARS‐CoV PL^pro. The following applies: read-out: IC50 SARS‐CoV PL^pro; cited from earlier work.

Read-outs that look alike come from different tables or passages of the source. A value given as a limit tells only on which side of the number the result lay.

By EC50 is commonly meant the concentration giving half of the maximal effect. Broadly, the IC50 is the concentration that inhibits the measured activity by half. Broadly, the melting point is the temperature of the solid-liquid transition. Turning to `C[C@@H](NC(=O)c1ccccc1Cl)c1cccc2ccccc12` [Compound 2 i, 2‐Chloro‐N‐[(1R)‐1‐naphth‐1‐ylethyl]benzamide], the melting point was found to be 133 °C. In the series with SARS‐CoV‐2, the “SI (selectivity index)” value stood at 212 and the EC50 is 1.77 ± 1.6 µM. Also, in the series “in vitro”, the CC50 is 376 ± 1.36 µM. The IC50 against SARS‐CoV‐2 PL^pro was 15 ± 2 µM. Also, at SARS‐CoV PL^pro [1], the IC50 was found to be 6.5 ± 0.8 µM.

Take `CCc1ccccc1C(=O)NC(C)c1ccc2ccccc2c1` (centres unmarked) [Compound 19]: at SARS‐CoV PL^pro [2], the IC50 was > 200 µM.

`C[C@H](c1cccc2ccccc12)N1CCC(C(=O)NCc2cccc(F)c2)CC1` [Compound 20]: the IC50 on SARS‐CoV PL^pro [2] is 0.15 µM.

As for `Cc1cc(N)ccc1C(=O)N[C@H](C)c1cccc2ccccc12.Cl` [Compound 2 p, (R)‐4‐Amino‐2‐methyl‐N‐[1‐(naphth‐1‐yl)ethyl]benzamide hydrochloride], the melting point amounted to 231 °C. In the series on SARS‐CoV‐2, the “SI (selectivity index)” value is listed as >31.7 and the EC50 amounted to 15.8 ± 1.59 µM. Besides, the CC50 in “in vitro” is > 500 µM. 7.5 ± 0.6 µM corresponded to half-maximal inhibition on SARS‐CoV‐2 PL^pro (IC50).

Regarding `Cc1ccsc1C(=O)N[C@H](C)c1cccc2ccccc12` [Compound 2 n, 3‐Methyl‐N‐[(1R)‐1‐naphth‐1‐ylethyl]thiophene‐2‐carboxamide], in the series with SARS‐CoV‐2, the “SI (selectivity index)” value is recorded as >105 and the EC50 is 4.74 ± 1.35 µM. For the same molecule, in the series “in vitro”, the CC50 was > 500 µM. The same molecule had an IC50 against SARS‐CoV‐2 PL^pro of 42 ± 6 µM. The molecule further had a concentration for half-maximal inhibition (IC50) on SARS‐CoV PL^pro [1] of 14 ± 1 µM.

With `C[C@H](c1cccc2ccccc12)N1Cc2ccccc2C1.Cl` [Compound 14 h, 2‐[(1R)‐1‐Naphth‐1‐ylethyl]‐2,3‐dihydro‐1H‐isoindol hydrochloride], in the series with SARS‐CoV‐2, the “SI (selectivity index)” value stood at 56.3 and the EC50 was 7.85 ± 1.5 µM. In the series “in vitro”, the CC50 was 442 ± 1.37 µM. Besides, the concentration for half-maximal inhibition (IC50) at SARS‐CoV‐2 PL^pro came out at 7.6 ± 0.2 µM. The molecule further had an IC50 on SARS‐CoV PL^pro [1] of 2.9 ± 0.2 µM.

The record behind these values is article PMC7894572 (Chemmedchem, 2020).
